Experiments:
[1] = molecular target: T1, PPARG/RXRA LBD heterodimer (Homo sapiens, UniProt P37231); assay: PPARγ-NCOR1 recruitment assay (TR-FRET); format: biochemical; conditions: for Emax: 3 h, maximal extent, T0070907 defined as 100%, DMSO 0%, read-out: % NCOR recruitment relative to T907; for EC50: TR-FRET, NCOR1 ID2 peptide, 80 nM Rosiglitazone, 3 hours, read-out: PPARG-NCOR recruitment assay EC50
T1 construct: 2 nM WT PPARG LBD (E. coli expressed, His-TEV-Q203-Y477); fused on or other part: N-terminal His tag with TEV site on the PPARG LBD
Procedure: Compound potency (EC50) and maximal extent of NCOR1 recruitment to PPARG were assessed a TR-FRET binding assay measuring association of a biotinylated NCOR1 ID2 peptide (Biotin-[…]-amide) to PPARG/RXRA LBD heterodimer.
T1 sequence (O75376 2251-2273 limits assumed, one chain of several, further chain): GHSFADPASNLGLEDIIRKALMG

[2] = system: ANGPTL4, a PPARG target gene, in HT1197 (RXRA S427F mutation) cells; assay: Bladder cancer pharmacodynamic assay, HT1197 cell assay (qPCR of PPARG target gene ANGPTL4); format: cell-based; conditions: Homo sapiens, read-out: % inhibition of ANGPTL4 @ 100 nM, 100 nM compound, 24 hours, relative to DMSO control
Procedure: Quantitative PCR was performed using an ABI QuantStudio 7 Flex Reaction system. Data were analyzed and reported relative to DMSO control using the comparative Ct method (ΔΔCt).

[3] = molecular target: T2, PPARG/RXRA LBD heterodimer (Homo sapiens, UniProt P37231); assay: PPARγ-MED1 blockade assay (TR-FRET); format: biochemical; conditions: for EC50: TR-FRET, MED1 LxxLL peptide, 80 nM Rosiglitazone, 3 hours; for Emax: maximal extent, GW9662 defined as 100%, DMSO 0%, read-out: % MED1 blockade relative to GW9662
T2 construct: His-TEV-Q203-Y477; Uniprot ID P37231-2; made in house; host or cells: E. coli
T2 sequence (P37231 203-477 isoform P37231-2): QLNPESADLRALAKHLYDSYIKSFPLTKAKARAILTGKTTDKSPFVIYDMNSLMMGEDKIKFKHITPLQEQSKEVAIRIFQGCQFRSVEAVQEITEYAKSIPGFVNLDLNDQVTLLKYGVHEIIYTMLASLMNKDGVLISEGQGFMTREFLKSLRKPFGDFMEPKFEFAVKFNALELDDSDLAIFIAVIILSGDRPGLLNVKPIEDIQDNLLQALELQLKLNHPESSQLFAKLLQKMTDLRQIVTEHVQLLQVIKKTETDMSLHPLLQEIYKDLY
T2 sequence (P19793 228-462 partner limits assumed): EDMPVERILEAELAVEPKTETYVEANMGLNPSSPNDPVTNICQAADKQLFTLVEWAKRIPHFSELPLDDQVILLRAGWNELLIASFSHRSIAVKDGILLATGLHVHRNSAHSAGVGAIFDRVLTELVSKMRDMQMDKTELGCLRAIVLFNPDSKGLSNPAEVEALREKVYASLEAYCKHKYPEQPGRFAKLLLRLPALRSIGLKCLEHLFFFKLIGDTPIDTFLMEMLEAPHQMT
Procedure: Compound potency (IC50) and maximal extent of MED1 repulsion to PPARG were assessed a TR-FRET binding assay measuring association of a biotinylated MED1 LxxLL peptide (Biotin-[…]-amide) to PPARG/RXRA LBD heterodimer.

SMILES	Emax [1] [%]	EC50 [1] [nM]	EC50 [3] [nM]	Emax [3] [%]	inhibition at 0.1 µM [2] [%]
CN(C)C(=O)[C@@H]1CCCN(c2c(F)cc3[nH]c(-c4cc(C#N)ncc4Cl)cc(=O)c3c2F)C1 [Example 22, (R)-1-(2-(5-chloro-2-cyanopyridin-4-yl)-5,7-difluoro-4-oxo-1,4-dihydroquinolin-6-yl)-N,N-dimethylpiperidine-3-carboxamide]	> 100	< 10	10 to 100	> 100	91
CN(C)C(=O)[C@H]1CCCN(c2c(F)cc3[nH]c(-c4cc(C#N)ncc4Cl)cc(=O)c3c2F)C1 [Example 23, (S)-1-(2-(5-chloro-2-cyanopyridin-4-yl)-5,7-difluoro-4-oxo-1,4-dihydroquinolin-6-yl)-N,N-dimethylpiperidine-3-carboxamide]	> 100	< 10	< 10	> 100	76
CN1CCN(c2c(F)cc3[nH]c(-c4cc(C#N)ncc4Cl)cc(=O)c3c2F)CC1=O [Example 24, 5-chloro-4-(5,7-difluoro-6-(4-methyl-3-oxopiperazin-1-yl)-4-oxo-1,4-dihydroquinolin-2-yl)picolinonitrile]	> 100	10 to 100	10 to 100	> 100	87
CN(C)C(=O)[C@@H]1CCN(c2c(F)cc3[nH]c(-c4cc(C#N)ncc4Cl)cc(=O)c3c2F)C1 [Example 25, (R)-1-(2-(5-chloro-2-cyanopyridin-4-yl)-5,7-difluoro-4-oxo-1,4-dihydroquinolin-6-yl)-N,N-dimethylpyrrolidine-3-carboxamide]	> 100	< 10	< 10	> 100	86
CN(C)C(=O)[C@H]1CCN(c2c(F)cc3[nH]c(-c4cc(C#N)ncc4Cl)cc(=O)c3c2F)C1 [Example 26, (S)-1-(2-(5-chloro-2-cyanopyridin-4-yl)-5,7-difluoro-4-oxo-1,4-dihydroquinolin-6-yl)-N,N-dimethylpyrrolidine-3-carboxamide]	> 100	< 10	< 10	> 100	85
N#Cc1cnc(Cl)c(-c2cc(=O)c3c(F)cc(F)cc3[nH]2)c1 [Example 27, 6-chloro-5-(5,7-difluoro-4-oxo-1,4-dihydroquinolin-2-yl)nicotinonitrile]	> 100	10 to 100	10 to 100	> 100	70
C[S+]([O-])c1cnc(C#N)cc1-c1cc(=O)c2c(F)cc(F)cc2[nH]1 (stereo not shown) [Example 28, 4-(5,7-difluoro-4-oxo-1,4-dihydroquinolin-2-yl)-5-(methylsulfinyl)picolinonitrile]	> 100	10 to 100	10 to 100	> 100	79

Continued, in another order:

Emax [1] [%]	EC50 [1] [nM]	EC50 [3] [nM]	Emax [3] [%]	SMILES	inhibition at 0.1 µM [2] [%]
> 100	< 10	< 10	> 100	CS(=O)(=O)c1cnc(C#N)cc1-c1cc(=O)c2ccc(Cl)cc2[nH]1 [Example 30, 4-(7-chloro-4-oxo-1,4-dihydroquinolin-2-yl)-5-(methylsulfonyl)picolinonitrile]	88
> 100	< 10	< 10	> 100	CS(=O)(=O)c1cnc(C#N)cc1-c1cc(=O)c2c(F)cc(Cl)cc2[nH]1 [Example 31, 4-(7-chloro-5-fluoro-4-oxo-1,4-dihydroquinolin-2-yl)-5-(methylsulfonyl)picolinonitrile]	86
> 100	< 10	< 10	> 100	CS(=O)(=O)c1ccc(C#N)nc1-c1cc(=O)c2c(F)cc(F)cc2[nH]1 [Example 32, 6-(5,7-difluoro-4-oxo-1,4-dihydroquinolin-2-yl)-5-(methylsulfonyl)picolinonitrile]	87
> 100	< 10	< 10	> 100	N#Cc1ncc(Cl)c(-c2cc(=O)c3c(F)cc(F)cc3[nH]2)n1 [Example 33, 5-chloro-4-(5,7-difluoro-4-oxo-1,4-dihydroquinolin-2-yl)pyrimidine-2-carbonitrile]	31

From US20250122169A1, “PPARG INVERSE AGONISTS AND USES THEREOF” (Flare Therapeutics Inc., priority 2021, published 2025)
